According to patent US9988341B2, “Bacterial topoisomerase inhibitors and use thereof” (THE FLORIDA INTERNATIONAL UNIVERSITY BOARD OF TRUSTEES, priority 2016, dated 2018):
Like-named read-outs stand apart in the source and are kept apart here.

Experiments:
[1] = molecular target: E. coli topoisomerase I (Escherichia coli, UniProt P06612); assay: Bacterial topoisomerase I relaxation activity inhibition assay (EcTopI); type: biochemical; conditions: Table 1; individual compounds tested as crude material; read-out: EcTopI relaxation inhibition (IC50)
Protocol: The relaxation activity of bacterial topoisomerase I was assayed in a buffer containing 10 mM Tris-HCl, pH 8.0, 50 mM NaCl, 0.1 mg/mL gelatin, and 0.5 mM MgCl2. One microliter of the compounds dissolved in DMF (dimethylformamide) or solvent alone was mixed with 10 μl of the reaction buffer containing 10 ng of enzyme before the addition of 9 μl of reaction buffer containing 160 ng of supercoiled pBAD/Thio plasmid DNA purified by cesium chloride gradient as substrate. Following incubation at 37° C. for 30 min, the reactions were terminated by the addition of 4 μl of 50% glycerol, 50 mM EDTA, and 0.5% (v/v) bromophenol blue, and analyzed by agarose gel electrophoresis. The gels were stained in ethidium bromide and photographed under UV light.

[2] = molecular target: T1, Human Topoisomerase IIα (Homo sapiens, UniProt P11388); assay: Human topoisomerase IIα decatenation inhibition assay; type: biochemical
T1 construct: purchased TopoGen
Protocol: Human Topoisomerase IIα (obtained from TopoGen) assays were carried out by adding the compounds to 180 ng of kinetoplast DNA (kDNA) in the buffer supplied by the manufacturer before the addition of 2 U of the enzyme. The samples were incubated for 15 minutes at 37° C. before the addition of 4 μl of stop buffer containing 5% sarkosyl, 0.0025% bromophenol blue, and 25% glycerol. The reactions were then analyzed by electrophoresis in 1% agarose gels containing 0.5 μg ml^−1 ethidium bromide before being photographed under UV light.

[3] = molecular target: T2, E. coli DNA gyrase (Escherichia coli, UniProt P0AES4+P0AES6); assay: DNA gyrase supercoiling inhibition assay; type: biochemical
T2 construct: purchased New England BioLabs
Protocol: DNA gyrase (obtained from New England BioLabs) supercoiling assays were carried out by mixing the compounds with 2 U of the enzyme in reaction buffer supplied by the manufacturer, followed by the addition of 300 ng of relaxed covalently closed circular DNA was for a final reaction volume of 20 μL. The samples were incubated at 37° C. for 30 minutes before being terminated by the addition of a buffer containing 5% SDS, 0.25% bromophenol blue, and 25% glycerol. The reactions were then analyzed by agarose gel electrophoresis.

[4] = molecular target: T3, Human topoisomerase I (Homo sapiens, UniProt P11387); assay: Human topoisomerase I relaxation inhibition assay; type: biochemical
T3 construct: purchased TopoGen
T3 sequence (P11387 1-765): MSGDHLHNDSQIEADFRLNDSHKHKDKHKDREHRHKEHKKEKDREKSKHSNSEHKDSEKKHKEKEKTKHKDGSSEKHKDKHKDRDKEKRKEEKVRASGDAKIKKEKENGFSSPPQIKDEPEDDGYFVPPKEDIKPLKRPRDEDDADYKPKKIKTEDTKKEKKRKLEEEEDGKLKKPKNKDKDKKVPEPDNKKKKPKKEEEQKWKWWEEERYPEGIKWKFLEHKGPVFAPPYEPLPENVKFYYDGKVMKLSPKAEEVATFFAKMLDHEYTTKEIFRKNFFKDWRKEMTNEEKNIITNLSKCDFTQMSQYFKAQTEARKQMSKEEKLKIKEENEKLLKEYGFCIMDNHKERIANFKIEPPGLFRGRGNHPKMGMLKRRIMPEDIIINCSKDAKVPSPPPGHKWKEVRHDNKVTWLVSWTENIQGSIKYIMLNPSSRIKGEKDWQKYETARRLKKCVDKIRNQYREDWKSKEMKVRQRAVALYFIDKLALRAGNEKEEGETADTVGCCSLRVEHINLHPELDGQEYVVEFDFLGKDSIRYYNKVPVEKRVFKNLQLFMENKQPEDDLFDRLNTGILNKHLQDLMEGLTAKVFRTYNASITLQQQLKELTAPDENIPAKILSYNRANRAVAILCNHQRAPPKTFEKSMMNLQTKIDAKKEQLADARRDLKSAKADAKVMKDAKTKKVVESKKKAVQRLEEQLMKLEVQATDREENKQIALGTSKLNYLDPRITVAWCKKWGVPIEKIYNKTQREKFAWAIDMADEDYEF
Protocol: Human topoisomerase I (obtained from TopoGen) relaxation assays were carried out with 0.5 U of enzyme in reaction buffer supplied by the manufacturer. The enzyme was mixed with the indicated concentration of compound dissolved before 160 ng of supercoiled pBAD/Thio plasmid DNA was added in the same buffer, for a final volume of 20 μL. Following incubation at 37° C. for 30 minutes, the reactions were terminated with a buffer containing 5% SDS, 0.25% bromophenol blue, and 25% glycerol, and analyzed by agarose gel electrophoresis.

[5] = molecular target: M. tuberculosis topoisomerase I (Mycobacterium tuberculosis, UniProt P9WG49); assay: biochemical; conditions: Table 6; read-out: IC50 M. tuberculosis topoisomerase I
[6] = supercoiling, read-out: IC50 E. coli DNA gyrase

T2 sequence (P0AES4 whole entry, one chain of several): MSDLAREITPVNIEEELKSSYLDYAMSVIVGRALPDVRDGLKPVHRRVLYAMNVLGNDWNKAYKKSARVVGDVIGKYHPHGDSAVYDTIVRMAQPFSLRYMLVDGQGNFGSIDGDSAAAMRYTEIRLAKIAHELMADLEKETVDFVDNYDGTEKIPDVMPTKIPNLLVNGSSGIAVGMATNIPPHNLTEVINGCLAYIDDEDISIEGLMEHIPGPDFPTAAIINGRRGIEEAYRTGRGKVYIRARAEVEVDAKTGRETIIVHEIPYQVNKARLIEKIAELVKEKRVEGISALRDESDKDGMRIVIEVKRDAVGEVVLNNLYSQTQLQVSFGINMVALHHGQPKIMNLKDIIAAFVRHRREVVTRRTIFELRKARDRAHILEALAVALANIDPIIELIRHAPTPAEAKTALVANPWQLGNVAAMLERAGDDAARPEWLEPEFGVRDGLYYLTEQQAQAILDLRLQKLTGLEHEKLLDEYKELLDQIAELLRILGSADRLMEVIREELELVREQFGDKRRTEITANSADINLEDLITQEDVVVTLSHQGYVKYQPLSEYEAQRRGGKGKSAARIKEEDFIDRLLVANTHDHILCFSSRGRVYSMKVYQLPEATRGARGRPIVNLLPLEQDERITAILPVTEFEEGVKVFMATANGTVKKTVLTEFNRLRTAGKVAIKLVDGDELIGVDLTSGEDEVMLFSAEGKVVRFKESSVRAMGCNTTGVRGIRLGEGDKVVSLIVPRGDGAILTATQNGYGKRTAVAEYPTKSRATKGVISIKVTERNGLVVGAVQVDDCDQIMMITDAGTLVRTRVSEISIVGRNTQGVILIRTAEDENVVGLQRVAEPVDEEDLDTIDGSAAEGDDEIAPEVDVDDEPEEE
Sequence of E. coli topoisomerase I (P06612 whole entry): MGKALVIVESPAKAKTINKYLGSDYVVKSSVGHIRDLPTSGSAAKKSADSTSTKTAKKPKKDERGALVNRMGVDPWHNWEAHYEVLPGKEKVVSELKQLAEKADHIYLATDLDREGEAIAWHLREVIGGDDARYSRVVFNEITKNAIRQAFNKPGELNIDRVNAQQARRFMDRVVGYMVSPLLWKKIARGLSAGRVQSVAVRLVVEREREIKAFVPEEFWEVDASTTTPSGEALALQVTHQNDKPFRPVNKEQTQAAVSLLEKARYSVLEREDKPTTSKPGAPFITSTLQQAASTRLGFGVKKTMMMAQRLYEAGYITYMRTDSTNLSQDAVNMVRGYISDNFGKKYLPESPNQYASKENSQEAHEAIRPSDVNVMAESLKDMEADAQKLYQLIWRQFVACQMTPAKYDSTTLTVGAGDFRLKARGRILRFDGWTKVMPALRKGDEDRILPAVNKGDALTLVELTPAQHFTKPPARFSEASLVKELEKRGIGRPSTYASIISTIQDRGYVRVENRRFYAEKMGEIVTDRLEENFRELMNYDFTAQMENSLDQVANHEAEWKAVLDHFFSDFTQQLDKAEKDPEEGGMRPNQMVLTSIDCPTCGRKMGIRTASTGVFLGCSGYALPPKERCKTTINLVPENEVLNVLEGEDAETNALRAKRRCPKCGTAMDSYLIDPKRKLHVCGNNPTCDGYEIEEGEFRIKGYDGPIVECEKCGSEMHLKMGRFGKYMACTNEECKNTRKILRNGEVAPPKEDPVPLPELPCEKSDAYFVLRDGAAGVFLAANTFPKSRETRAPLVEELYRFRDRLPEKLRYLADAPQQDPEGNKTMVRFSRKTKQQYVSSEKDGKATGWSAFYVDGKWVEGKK
Sequence of M. tuberculosis topoisomerase I (P9WG49 whole entry): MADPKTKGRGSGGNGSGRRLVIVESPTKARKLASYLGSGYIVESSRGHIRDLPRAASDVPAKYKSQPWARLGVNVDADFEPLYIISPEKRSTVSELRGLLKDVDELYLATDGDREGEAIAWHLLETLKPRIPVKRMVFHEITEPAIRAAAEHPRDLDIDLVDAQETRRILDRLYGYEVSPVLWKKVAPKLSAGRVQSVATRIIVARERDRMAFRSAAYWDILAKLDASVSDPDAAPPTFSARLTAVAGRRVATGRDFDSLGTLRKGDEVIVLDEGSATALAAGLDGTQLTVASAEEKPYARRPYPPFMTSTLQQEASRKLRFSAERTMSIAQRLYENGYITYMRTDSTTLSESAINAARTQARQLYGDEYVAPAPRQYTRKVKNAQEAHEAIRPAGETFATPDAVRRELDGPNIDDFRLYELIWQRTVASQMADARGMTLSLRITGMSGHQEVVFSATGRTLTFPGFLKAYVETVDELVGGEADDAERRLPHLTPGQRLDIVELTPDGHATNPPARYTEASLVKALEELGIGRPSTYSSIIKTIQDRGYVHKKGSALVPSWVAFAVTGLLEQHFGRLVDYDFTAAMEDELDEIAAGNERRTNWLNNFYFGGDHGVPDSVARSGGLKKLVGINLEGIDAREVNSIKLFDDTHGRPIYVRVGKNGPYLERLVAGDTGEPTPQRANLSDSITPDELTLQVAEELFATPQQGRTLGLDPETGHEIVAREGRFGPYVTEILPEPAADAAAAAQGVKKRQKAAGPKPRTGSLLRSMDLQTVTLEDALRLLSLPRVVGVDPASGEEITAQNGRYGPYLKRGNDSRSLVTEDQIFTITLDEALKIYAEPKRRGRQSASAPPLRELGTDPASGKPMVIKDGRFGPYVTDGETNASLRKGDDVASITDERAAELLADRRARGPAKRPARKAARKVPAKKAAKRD
T1 sequence (P11388 whole entry): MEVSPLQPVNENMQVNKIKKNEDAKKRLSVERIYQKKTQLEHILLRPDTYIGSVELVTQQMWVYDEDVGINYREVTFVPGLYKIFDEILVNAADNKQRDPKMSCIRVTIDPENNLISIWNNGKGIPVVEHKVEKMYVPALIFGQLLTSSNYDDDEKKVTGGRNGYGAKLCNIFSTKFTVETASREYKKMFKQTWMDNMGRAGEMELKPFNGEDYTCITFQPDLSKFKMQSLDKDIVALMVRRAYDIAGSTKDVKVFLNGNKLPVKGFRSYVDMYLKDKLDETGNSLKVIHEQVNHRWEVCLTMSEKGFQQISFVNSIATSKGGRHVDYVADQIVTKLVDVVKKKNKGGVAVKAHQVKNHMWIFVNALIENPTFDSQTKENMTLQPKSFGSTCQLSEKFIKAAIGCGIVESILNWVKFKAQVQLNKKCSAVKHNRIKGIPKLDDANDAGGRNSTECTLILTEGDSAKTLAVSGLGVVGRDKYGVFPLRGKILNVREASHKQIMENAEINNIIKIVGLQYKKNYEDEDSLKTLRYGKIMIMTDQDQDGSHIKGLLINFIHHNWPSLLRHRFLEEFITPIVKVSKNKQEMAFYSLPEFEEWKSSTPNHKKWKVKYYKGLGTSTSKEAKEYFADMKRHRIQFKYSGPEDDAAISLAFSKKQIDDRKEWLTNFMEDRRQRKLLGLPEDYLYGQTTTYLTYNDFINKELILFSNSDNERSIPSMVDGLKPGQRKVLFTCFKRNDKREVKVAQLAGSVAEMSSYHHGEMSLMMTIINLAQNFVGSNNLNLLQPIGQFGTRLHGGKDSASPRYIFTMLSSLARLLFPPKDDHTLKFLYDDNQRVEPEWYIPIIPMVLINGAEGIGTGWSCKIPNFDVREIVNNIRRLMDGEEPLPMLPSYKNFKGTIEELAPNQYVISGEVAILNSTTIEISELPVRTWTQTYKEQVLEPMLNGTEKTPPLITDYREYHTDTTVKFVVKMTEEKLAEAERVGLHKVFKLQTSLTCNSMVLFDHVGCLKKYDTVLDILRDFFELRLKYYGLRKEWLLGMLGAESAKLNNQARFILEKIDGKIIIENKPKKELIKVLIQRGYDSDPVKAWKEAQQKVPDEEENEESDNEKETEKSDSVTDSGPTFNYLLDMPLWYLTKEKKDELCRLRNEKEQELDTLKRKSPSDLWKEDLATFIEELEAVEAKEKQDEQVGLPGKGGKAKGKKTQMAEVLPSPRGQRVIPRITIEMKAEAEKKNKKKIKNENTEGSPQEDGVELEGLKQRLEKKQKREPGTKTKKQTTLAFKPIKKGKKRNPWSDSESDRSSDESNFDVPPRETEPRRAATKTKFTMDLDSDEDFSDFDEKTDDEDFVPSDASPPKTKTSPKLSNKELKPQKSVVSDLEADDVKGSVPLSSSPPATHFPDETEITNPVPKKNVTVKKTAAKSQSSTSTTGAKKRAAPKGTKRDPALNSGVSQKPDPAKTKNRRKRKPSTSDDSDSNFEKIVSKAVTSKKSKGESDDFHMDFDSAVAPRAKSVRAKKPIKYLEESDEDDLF

Row | Compound | IC50 [1] [µM] | other results
1 | CNCCCC[C@@H](CN)NC[C@H](CCCCNC)NCCCc1cccc(Br)c1 [Compound 2471-1] | 160 | –
2 | CNCCCC[C@@H](CN)NC[C@H](CCCNC(=N)N)NCCCc1cccc(Br)c1 [Compound 2471-4] | 160 | –
3 | CNCCCC[C@@H](CN)NC[C@H](CCCNC(=N)N)NCCCc1ccc(O)c(O)c1 [Compound 2471-5] | > 160 | –
4 | CCC[C@H](CN[C@H](CN)CCCCNC)NCCCc1cccc(Br)c1 [Compound 2471-7] | 160 | –
5 | CCC[C@H](CN[C@H](CN)CCCCNC)NCCCc1ccc(O)c(O)c1 [Compound 2471-8] | > 160 | –
6 | CCCC[C@@H](CN[C@H](CN)CCCCNC)NCCCc1cccc(Br)c1 [Compound 2471-10] | 160 | –
7 | CCCC[C@@H](CN[C@H](CN)CCCCNC)NCCCc1ccc(O)c(O)c1 [Compound 2471-11] | > 160 | –
8 | CNCCCC[C@@H](CN[C@H](CN)CCCN)NCCCc1cccc(Br)c1 [Compound 2471-13] | 160 | –
9 | CNCCCC[C@@H](CN[C@H](CN)CCCN)NCCCc1ccc(O)c(O)c1 [Compound 2471-14] | > 160 | –
10 | N=C(N)NCCC[C@@H](CN[C@H](CN)CCCN)NCCCc1ccc(O)c(O)c1 [Compound 2471-17] | > 160 | –
11 | CCC[C@H](CN[C@H](CN)CCCN)NCCCc1cccc(Br)c1 [Compound 2471-19] | 160 | –
12 | CCC[C@H](CN[C@H](CN)CCCN)NCCCc1ccc(O)c(O)c1 [Compound 2471-20] | > 160 | –
13 | CCCC[C@@H](CN[C@H](CN)CCCN)NCCCc1cccc(Br)c1 [Compound 2471-22] | 160 | –
14 | CCCC[C@@H](CN[C@H](CN)CCCN)NCCCc1ccc(O)c(O)c1 [Compound 2471-23] | > 160 | –
15 | CNCCCC[C@H](CN)NC[C@H](CCCCNC)NCCCc1cccc(Br)c1 [Compound 2471-25] | 160 | –
16 | CNCCCC[C@H](CN)NC[C@H](CCCNC(=N)N)NCCCc1ccc(O)c(O)c1 [Compound 2471-29] | 120 | –
17 | CCC[C@H](CN[C@@H](CN)CCCCNC)NCCCc1cccc(Br)c1 [Compound 2471-31] | 160 | –
18 | CCC[C@H](CN[C@@H](CN)CCCCNC)NCCCc1ccc(O)c(O)c1 [Compound 2471-32] | > 160 | –
19 | CCCC[C@@H](CN[C@@H](CN)CCCCNC)NCCCc1cccc(Br)c1 [Compound 2471-34] | 160 | –
20 | CCCC[C@@H](CN[C@@H](CN)CCCCNC)NCCCc1ccc(O)c(O)c1 [Compound 2471-35] | > 160 | –
21 | CCCC[C@H](CN[C@H](CN)CC1CCCCC1)NCC1CCC(C(C)(C)C)CC1 (some centres unmarked) [Compound 2471-50] | 160 | –

Row | Compound | IC50 [1] [µM] | other results
22 | CCCC[C@H](CN[C@H](CN)CC1CCCCC1)NCCCCCC1CCCCC1 [Compound 2471-51] | 160 | –
23 | CNCCC[C@@H](CN[C@H](CN)CC1CCCCC1)NCCCc1cc(C(F)(F)F)cc(C(F)(F)F)c1 [Compound 2471-52] | 160 | –
24 | CNCCC[C@@H](CN[C@H](CN)CC1CCCCC1)NCC1CCC(C(C)(C)C)CC1 (some centres unmarked) [Compound 2471-53] | > 160 | –
25 | CNCCC[C@@H](CN[C@H](CN)CC1CCCCC1)NCCCCCC1CCCCC1 [Compound 2471-54] | > 160 | –
26 | CNCCC[C@H](CN[C@H](CN)CC1CCCCC1)NCCCc1cc(C(F)(F)F)cc(C(F)(F)F)c1 [Compound 2471-55] | 160 | –
27 | CNCCC[C@H](CN[C@H](CN)CC1CCCCC1)NCC1CCC(C(C)(C)C)CC1 (some centres unmarked) [Compound 2471-56] | 160 | –
28 | CNCCC[C@H](CN[C@H](CN)CC1CCCCC1)NCCCCCC1CCCCC1 [Compound 2471-57] | 160 | –
29 | CCCC[C@H](CN[C@@H](CN)CC1CCCCC1)NCC1CCC(C(C)(C)C)CC1 (some centres unmarked) [Compound 2471-62] | 160 | –
30 | CCCC[C@H](CN[C@@H](CN)CC1CCCCC1)NCCCCCC1CCCCC1 [Compound 2471-63] | 160 | –
31 | CNCCC[C@@H](CN[C@@H](CN)CC1CCCCC1)NCCCc1cc(C(F)(F)F)cc(C(F)(F)F)c1 [Compound 2471-64] | 160 | –
32 | CNCCC[C@@H](CN[C@@H](CN)CC1CCCCC1)NCC1CCC(C(C)(C)C)CC1 (some centres unmarked) [Compound 2471-65] | 160 | –
33 | CNCCC[C@@H](CN[C@@H](CN)CC1CCCCC1)NCCCCCC1CCCCC1 [Compound 2471-66] | 160 | –
34 | CNCCC[C@H](CN[C@@H](CN)CC1CCCCC1)NCCCc1cc(C(F)(F)F)cc(C(F)(F)F)c1 [Compound 2471-67] | 160 | –
35 | CNCCC[C@H](CN[C@@H](CN)CC1CCCCC1)NCC1CCC(C(C)(C)C)CC1 (some centres unmarked) [Compound 2471-68] | 160 | –
36 | CC(C)(C)C1CCC(CN[C@H](CN[C@@H](CN)CC2CCCCC2)Cc2ccc(F)cc2)CC1 (some centres unmarked) [Compound 2471-71] | 40 | –
37 | CCC[C@H](CN)NC[C@@H](CCCNC(=N)N)NCCc1cccc2ccccc12 [Compound 2580-3] | – | IC50 [2]: > 80 µM; IC50 [3, 6]: > 80 µM; IC50 [4]: > 80 µM; IC50 [5]: 6 µM
38 | CNCCC[C@H](CN)NC[C@@H](CCCNC(=N)N)NCCc1cccc2ccccc12 [Compound 2580-15] | – | IC50 [2]: > 90 µM; IC50 [3, 6]: > 90 µM; IC50 [4]: > 90 µM; IC50 [5]: 0.73 µM
39 | CCCC[C@H](CN[C@@H](CN)CCCNC)NCCc1cccc2ccccc12 [Compound 2580-18] | – | IC50 [2]: > 100 µM; IC50 [3, 6]: > 100 µM; IC50 [4]: > 100 µM; IC50 [5]: 3.2 µM
40 | CNCCC[C@H](CN)NC[C@@H](Cc1ccc2ccccc2c1)NCCc1cccc2ccccc12 [Compound 2580-24] | – | IC50 [2]: > 85 µM; IC50 [3]: > 85 µM; IC50 [4]: > 85 µM; IC50 [5]: 8 µM
41 | CNCCC[C@@H](CN[C@@H](CN)Cc1ccc2ccccc2c1)NCCc1cccc2ccccc12 [Compound 2580-33] | – | IC50 [2]: > 85 µM; IC50 [3]: > 85 µM; IC50 [4]: > 85 µM; IC50 [5]: 8 µM
